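Assay format: 96-well plates, 48-hour exposure. At the GI50, growth is halved.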 The source made the active and inactive calls. No stated cut-off is given here; in the data, active = GI50 up to about 1.1 µM and inactive = higher.
Tests used:
Assay in all cases: NCI tumour cell line growth inhibition, 48 h
786-0 = system: 786-0
A549 = system: A549
COLO 205 = system: COLO 205
HT-29 = system: HT-29
M14 = system: M14
Malme-3M = system: Malme-3M
NCI-H522 = system: NCI-H522
OVCAR-4 = system: OVCAR-4
RPMI-8226 = system: RPMI-8226
RXF 393 = system: RXF 393
SF-268 = system: SF-268
SN12C = system: SN12C
SNB-19 = system: SNB-19
SNB-75 = system: SNB-75
U-251 = system: U-251
UACC-62 = system: UACC-62
UO-31 = system: UO-31
NCI-H226 = system: NCI-H226

Measured: GI50

COC(=O)C1(C)NCCc2c1[nH]c1ccccc21 (stereo not given)
inactive: 786-0 > 100 µM | A549 > 100 µM | COLO 205 > 100 µM | HT-29 > 100 µM | M14 > 100 µM | Malme-3M > 100 µM | NCI-H522 > 100 µM | OVCAR-4 > 100 µM | RPMI-8226 > 100 µM | RXF 393 > 100 µM | SF-268 > 100 µM | SN12C > 100 µM | SNB-19 > 100 µM | SNB-75 16.8 µM | U-251 > 100 µM | UACC-62 > 100 µM | UO-31 > 100 µM

C=C1CCC(OC(C)=O)C2(C)C(OC(C)=O)CC3OC3(C)C2C(OC(C)=O)C2C(C)C(=O)OC2C1Cl (stereo not given)
inactive: 786-0 > 100 µM | A549 > 100 µM | COLO 205 > 100 µM | HT-29 > 100 µM | M14 > 100 µM | Malme-3M > 100 µM | NCI-H226 > 100 µM | OVCAR-4 > 100 µM | RPMI-8226 > 100 µM | RXF 393 > 100 µM | SF-268 > 100 µM | SN12C > 100 µM | SNB-19 > 100 µM | SNB-75 > 100 µM | U-251 > 100 µM | UACC-62 > 100 µM | UO-31 > 100 µM

Cc1nc2ccccn2c1/N=N/c1ccc(C(=O)NN)cc1
inactive: 786-0 53.8 µM | A549 24.9 µM | COLO 205 51.2 µM | HT-29 73.5 µM | M14 > 100 µM | Malme-3M > 100 µM | NCI-H226 25.5 µM | OVCAR-4 > 100 µM | RPMI-8226 28.4 µM | RXF 393 9.82 µM | SF-268 19.4 µM | SN12C 27.7 µM | SNB-19 49.5 µM | U-251 61.7 µM | UACC-62 80.2 µM | UO-31 36.9 µM

CN(C)C(=N)c1ccccc1
inactive: 786-0 > 100 µM | A549 > 100 µM | COLO 205 > 100 µM | HT-29 > 100 µM | M14 > 100 µM | Malme-3M > 100 µM | NCI-H226 > 100 µM | NCI-H522 > 100 µM | OVCAR-4 > 100 µM | RXF 393 > 100 µM | SN12C > 100 µM | SNB-19 > 100 µM | SNB-75 > 100 µM | U-251 > 100 µM | UO-31 > 100 µM

COC(=O)C1CC2CC(=NNC(N)=O)CC2C1 (stereo not given)
inactive: 786-0 > 100 µM | A549 > 100 µM | COLO 205 > 100 µM | HT-29 > 100 µM | M14 > 100 µM | Malme-3M > 100 µM | NCI-H522 > 100 µM | OVCAR-4 > 100 µM | RPMI-8226 > 100 µM | RXF 393 > 100 µM | SF-268 > 100 µM | SN12C > 100 µM | SNB-19 > 100 µM | SNB-75 > 100 µM | U-251 > 100 µM | UACC-62 > 100 µM | UO-31 > 100 µM

CCc1ccccc1N1C(=O)C(=O)C(c2nc3ccccc3s2)C(=O)C1=O
inactive: 786-0 > 100 µM | A549 > 100 µM | HT-29 > 100 µM | M14 59 µM | Malme-3M > 100 µM | NCI-H226 > 100 µM | NCI-H522 > 100 µM | OVCAR-4 79.8 µM | RPMI-8226 72.4 µM | RXF 393 > 100 µM | SF-268 > 100 µM | SN12C 63.4 µM | SNB-19 > 100 µM | U-251 36.1 µM | UACC-62 > 100 µM | UO-31 > 100 µM

N#CC(C#N)=c1ccc(=C2N3CCCC3CN2C23CC4CC(CC(C4)C2)C3)cc1 (stereo not given)
inactive: 786-0 > 100 µM | A549 > 100 µM | COLO 205 > 100 µM | HT-29 > 100 µM | M14 > 100 µM | Malme-3M > 100 µM | NCI-H226 > 100 µM | NCI-H522 > 100 µM | RPMI-8226 > 100 µM | RXF 393 > 100 µM | SF-268 55.8 µM | SN12C > 100 µM | SNB-19 84.1 µM | SNB-75 26.4 µM | U-251 > 100 µM | UACC-62 90.6 µM | UO-31 > 100 µM

Cc1ccc(S(=O)(=O)N/N=C2\C(=O)C3CC2C(Cl)C3Cl)cc1 (stereo not given)
inactive: 786-0 > 100 µM | A549 > 100 µM | COLO 205 > 100 µM | HT-29 > 100 µM | M14 > 100 µM | Malme-3M > 100 µM | NCI-H226 > 100 µM | OVCAR-4 > 100 µM | RPMI-8226 > 100 µM | SF-268 > 100 µM | SN12C > 100 µM | SNB-19 > 100 µM | SNB-75 55 µM | U-251 > 100 µM | UACC-62 > 100 µM | UO-31 > 100 µM

CC1=N/C(=C\c2cccc3ccccc23)C(=O)O1
inactive: 786-0 > 100 µM | A549 > 100 µM | COLO 205 > 100 µM | HT-29 > 100 µM | M14 > 100 µM | Malme-3M > 100 µM | NCI-H522 > 100 µM | RPMI-8226 > 100 µM | RXF 393 > 100 µM | SF-268 > 100 µM | SN12C > 100 µM | SNB-19 > 100 µM | U-251 > 100 µM | UACC-62 > 100 µM | UO-31 > 100 µM

O=C(CC1Sc2ccccc2NC1=O)Nc1ccc([N+](=O)[O-])cc1[N+](=O)[O-] (stereo not given)
inactive: 786-0 17.9 µM | A549 26.5 µM | COLO 205 26.7 µM | HT-29 17.7 µM | M14 16 µM | Malme-3M 19.8 µM | NCI-H226 11.9 µM | OVCAR-4 17.2 µM | RPMI-8226 11.3 µM | RXF 393 12.9 µM | SF-268 16.6 µM | SN12C 16.1 µM | SNB-19 19.5 µM | SNB-75 20 µM | U-251 16 µM | UACC-62 15.4 µM | UO-31 12 µM

CC(C)(C)c1ccnc(/N=C2\N/C(=N\c3cc(C(C)(C)C)ccn3)c3ccccc32)c1
inactive: 786-0 19.3 µM | A549 26.1 µM | COLO 205 > 100 µM | HT-29 12.4 µM | M14 32.5 µM | Malme-3M 24.8 µM | NCI-H226 > 100 µM | NCI-H522 21.6 µM | OVCAR-4 > 100 µM | RXF 393 22.3 µM | SF-268 16.3 µM | SN12C > 100 µM | SNB-19 22.2 µM | SNB-75 > 100 µM | U-251 26.1 µM | UACC-62 50.1 µM | UO-31 32 µM

CC1(C)C2CCC13CS(=O)(=O)N1O[C@]13C(=O)O2 (stereo not given in full)
inactive: 786-0 > 100 µM | A549 > 100 µM | COLO 205 > 100 µM | HT-29 > 100 µM | Malme-3M > 100 µM | NCI-H226 > 100 µM | NCI-H522 > 100 µM | OVCAR-4 > 100 µM | RPMI-8226 > 100 µM | SF-268 > 100 µM | SN12C > 100 µM | SNB-19 > 100 µM | SNB-75 60.8 µM | U-251 > 100 µM | UO-31 > 100 µM
